In US20210395239A1 (Hoffmann-La Roche Inc., priority 2018, published 2021):
Each block holds one molecule with its values, some of them ahead of it.

Key:
CYP2D6 = target: T1, CYP2D6 (Homo sapiens, UniProt P10635); assay: CYP inhibition assay in human liver microsome, CYP2D6; assay type: in vitro ADME; settings: human, human liver microsomes, probe dextromethorphan 5 μM, substrate dextromethorphan 5 μM, second value of 2C9/2D6/3A4
T1 construct: tissue BD-Gentest 452117; host or cells: human liver microsomes
T1 sequence (P10635 whole entry): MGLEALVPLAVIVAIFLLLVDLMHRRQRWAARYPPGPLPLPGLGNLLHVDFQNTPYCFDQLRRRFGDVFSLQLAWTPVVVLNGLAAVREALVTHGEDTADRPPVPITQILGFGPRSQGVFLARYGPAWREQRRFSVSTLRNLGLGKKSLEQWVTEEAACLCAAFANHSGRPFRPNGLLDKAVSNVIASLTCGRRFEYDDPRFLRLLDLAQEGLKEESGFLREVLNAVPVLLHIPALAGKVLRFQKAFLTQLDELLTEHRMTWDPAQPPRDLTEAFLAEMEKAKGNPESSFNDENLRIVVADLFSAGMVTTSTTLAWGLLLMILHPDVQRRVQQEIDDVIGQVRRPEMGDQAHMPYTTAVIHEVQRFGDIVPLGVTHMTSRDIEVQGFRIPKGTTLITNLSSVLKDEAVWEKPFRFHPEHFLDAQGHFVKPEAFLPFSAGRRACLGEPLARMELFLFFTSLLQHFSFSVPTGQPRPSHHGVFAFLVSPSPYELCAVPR
Procedure: This is a high throughput screening assay used for assessment of reversible inhibition of CYP2C9, CYP2D6, and CYP3A4 activity of test compounds in human liver microsome (HLM) in early discovery stage.
10 mM DMSO stock solutions of test compounds were diluted in DMSO to generate 2 mM intermediate stock solution. 250 nL, of intermediate stock solution were transferred in duplicate into 3 separate 384 well microtitre plates (assay-ready plates). A mixture of HLM and each substrate was made up. 45 μL of HLM substrate mix was then transferred to each well of an assay ready plate and mixed. The negative (solvent) and positive controls (standard inhibitor for each CYP) were included in each assay ready plate. The assay ready plate was warmed to 37° C. in an incubator over 10 minutes. 5 μL pre-warmed NADPH regenerating system was added to each incubation well to start the reaction. Final incubation volume was 50 μL. The assay plate then was placed back in the 37° C. incubator. After incubation (10 minutes for CYP2D6) for 5 minutes, incubates were quenched by addition of 50 μL 100% acetonitrile containing internal standards (400 ng/mL 13C6-4′-OH-Diclofenac, 20 ng/mL D3-Dextrorphan and 20 ng/mL D4-1′OH-Midazolam). The supernatants were collected for RapidFire/MS/MS analysis.
RapidFire online solid phase extraction/sample injection system (Agilent) coupled with API4000 triple quadrupole mass spectrometer (AB Sciex) were used for sample analysis. The mobile phase composed of acetonitrile and water supplemented with 0.1% formic acid. A C4 solid phase extraction cartridge is used for sample separation. MS detection is achieved in positive ion MRM mode.
Peak areas for substrate, metabolite and internal standard are determined using the RapidFire integrator software (version 3.6.12009.12296). Peak area ratios (PAR) of metabolite and internal standard (stable-labelled metabolite) are then calculated. The measurement window for each experiment is then defined:
PAR (0% activity)=average PAR for all incubations containing concentrated inhibitor; Par (100% activity)=average PAR for all incubations containing no inhibitor (DMSO controls); % Activity (test inhibitor)=[PAR (test inhibitor)−PAR (0% activity)]/[PAR (100% activity)−PAR (0% activity)]; % Inhibition (test inhibitor)=100-% Activity (test inhibitor).

hERG channel = target: T2, hERG channel (Homo sapiens, UniProt Q12809); assay: hERG channel inhibition assay (patch-clamp, CHOhERG cells); assay type: cell-based; settings: for IC20: human, CHO cells stably expressing hERG (CHOhERG); for IC20 / IC50: patch-clamp, CHOhERG cells; for hERG IC20/TLR7 IC50 / hERG IC20/TLR8 IC50 / hERG IC20/TLR9 IC50: safety ratio
T2 construct: expressed in transfected cells; host or cells: CHO (Chinese hamster ovary)
T2 sequence (Q12809 whole entry): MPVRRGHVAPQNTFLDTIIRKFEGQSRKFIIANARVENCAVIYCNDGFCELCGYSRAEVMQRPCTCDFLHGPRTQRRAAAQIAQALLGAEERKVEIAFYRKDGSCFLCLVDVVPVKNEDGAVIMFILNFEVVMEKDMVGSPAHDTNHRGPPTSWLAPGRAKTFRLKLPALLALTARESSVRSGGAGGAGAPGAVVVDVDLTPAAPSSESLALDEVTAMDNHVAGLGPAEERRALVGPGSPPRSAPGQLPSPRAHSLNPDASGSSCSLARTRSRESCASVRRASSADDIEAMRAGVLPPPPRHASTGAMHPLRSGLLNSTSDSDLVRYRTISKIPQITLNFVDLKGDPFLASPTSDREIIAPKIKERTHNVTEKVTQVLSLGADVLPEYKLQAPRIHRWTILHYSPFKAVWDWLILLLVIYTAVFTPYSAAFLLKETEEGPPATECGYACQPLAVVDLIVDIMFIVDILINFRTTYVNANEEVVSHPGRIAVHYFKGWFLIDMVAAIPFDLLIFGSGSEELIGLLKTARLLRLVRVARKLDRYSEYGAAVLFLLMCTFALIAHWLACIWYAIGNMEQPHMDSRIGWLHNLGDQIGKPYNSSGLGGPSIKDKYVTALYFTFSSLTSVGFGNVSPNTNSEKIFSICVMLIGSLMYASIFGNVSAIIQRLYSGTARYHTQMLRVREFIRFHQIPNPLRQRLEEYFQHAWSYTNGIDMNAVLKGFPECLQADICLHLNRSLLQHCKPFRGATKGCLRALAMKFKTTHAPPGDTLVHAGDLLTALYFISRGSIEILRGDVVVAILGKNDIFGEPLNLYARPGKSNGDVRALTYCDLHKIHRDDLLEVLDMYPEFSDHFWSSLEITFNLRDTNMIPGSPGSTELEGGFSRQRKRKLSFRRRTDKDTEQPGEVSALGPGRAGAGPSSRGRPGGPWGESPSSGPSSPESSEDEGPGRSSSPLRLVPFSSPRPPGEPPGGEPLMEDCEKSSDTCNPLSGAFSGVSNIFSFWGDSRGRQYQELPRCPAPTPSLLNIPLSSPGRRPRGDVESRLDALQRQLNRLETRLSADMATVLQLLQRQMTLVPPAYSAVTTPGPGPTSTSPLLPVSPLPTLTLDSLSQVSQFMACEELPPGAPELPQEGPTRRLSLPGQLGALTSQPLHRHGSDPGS
Procedure: hERG Channel Inhibition Assay:
The hERG K^+ channels were cloned in humans and stably expressed in a CHO (Chinese hamster ovary) cell line. CHOhERG cells were used for patch-clamp (voltage-clamp, whole-cell) experiments. Cells were stimulated by a voltage pattern to activate hERG channels and conduct IKhERG currents (rapid delayed outward rectifier potassium current of the hERG channel). After the cells were stabilized for a few minutes, the amplitude and kinetics of IKhERG were recorded at a stimulation frequency of 0.1 Hz, (6 bpm). Thereafter, the test compound was added to the preparation at increasing concentrations. For each concentration, an attempt was made to reach a steady-state effect, usually, this was achieved within 3-10 min at which time the next highest concentration was applied. The amplitude and kinetics of IKhERG are recorded in each concentration of the drug which were compared to the control values (taken as 100%). (references: Redfern W S, Carlsson L, Davis A S, Lynch W G, MacKenzie I, Palethorpe S, Siegl P K, Strang I, Sullivan A T, Wallis R, Camm A J, Hammond T G. 2003; Relationships between preclinical cardiac electrophysiology, clinical QT interval prolongation and torsade de pointes for a broad range of drugs: evidence for a provisional safety margin in drug development. Cardiovasc. Res. 58:32-45, Sanguinetti M C, Tristani-Firouzi M. 2006; hERG potassium channels and cardiac arrhythmia. Nature 440:463-469, Webster R, Leishman D, Walker D. 2002; Towards a drug concentration effect relationship for QT prolongation and torsades de pointes. Curr. Opin. Drug Discov. Devel. 5:116-26).

Structure (SMILES): CO[C@H]1CN(c2nccc(N3CCN(C[C@H]4CN(c5ccc(C#N)c6nccnc56)C[C@@H](C)O4)CC3)n2)C[C@@H]1N [Example 99, 8-[(2S,6R)-2-[[4-[2-[(3S,4S)-3-amino-4-methoxy-pyrrolidin-1-yl]pyrimidin-4-yl]piperazin-1-yl]methyl]-6-methyl-morpholin-4-yl]quinoxaline-5-carbonitrile]
IC20 (hERG channel): 9 µM | IC50 (hERG channel): > 20 µM | hERG IC20/TLR7 IC50 (hERG channel): 818 | hERG IC20/TLR8 IC50 (hERG channel): 9000 | hERG IC20/TLR9 IC50 (hERG channel): 142

Structure (SMILES): C[C@@H]1CN(c2ccc(C#N)c3ncccc23)C[C@H](CN2CCC(c3cccc(N4CCNCC4)c3)C2)O1 (stereo partly drawn) [Example 1, 5-[(2R,6S)-2-methyl-6-[[3-(3-piperazin-1-ylphenyl)pyrrolidin-1-yl]methyl]morpholin-4-yl]quinoline-8-carbonitrile]
inhibition at 10 min, 10 µM (CYP2D6): 5%

Structure (SMILES): [2H]c1ccc2c(N3C[C@H](CN4CCN(c5nc(C)cc(N6C[C@@H](N)[C@H](OC)C6)n5)CC4)O[C@H](C)C3)ccc(C#N)c2n1 [Example 144, 5-[(2S,6R)-2-[[4-[4-[(3R,4R)-3-amino-4-methoxy-pyrrolidin-1-yl]-6-methyl-pyrimidin-2-yl]piperazin-1-yl]methyl]-6-methyl-morpholin-4-yl]-2-deuterio-quinoline-8-carbonitrile]
IC20 (hERG channel): > 10 µM | IC50 (hERG channel): > 20 µM | hERG IC20/TLR7 IC50 (hERG channel): >909 | hERG IC20/TLR8 IC50 (hERG channel): >10000 | hERG IC20/TLR9 IC50 (hERG channel): >322

Structure (SMILES): C[C@@H]1CN(c2ccc(C#N)c3ncccc23)C[C@H](CN2CC(c3ccc(N4CCNCC4)cc3)C2)O1 [Example 3, 5-[(2R,6S)-2-methyl-6-[[3-(4-piperazin-1-ylphenyl)azetidin-1-yl]methyl]morpholin-4-yl]quinoline-8-carbonitrile]
inhibition at 10 min, 10 µM (CYP2D6): 13.5%

Structure (SMILES): C[C@@H]1CN(c2ccc(C#N)c3ncccc23)C[C@H](CN2CCC(c3cccc(C4CCNCC4)c3)CC2)O1 [Example 2, 5-[(2R,6S)-2-methyl-6-[[4-[3-(4-piperidyl)phenyl]-1-piperidyl]methyl]morpholin-4-yl]quinoline-8-carbonitrile]
inhibition at 10 min, 10 µM (CYP2D6): 20%

Structure (SMILES): C[C@@H]1CN(c2ccc(C#N)c3nccnc23)C[C@H](CN2CCN(c3nccc(N4CC(N)C4)n3)CC2)O1 [Example 118, 8-[(2S,6R)-2-[[4-[4-(3-aminoazetidin-1-yl)pyrimidin-2-yl]piperazin-1-yl]methyl]-6-methyl-morpholin-4-yl]quinoxaline-5-carbonitrile]
IC20 (hERG channel): > 10 µM | IC50 (hERG channel): > 20 µM | hERG IC20/TLR7 IC50 (hERG channel): >2500 | hERG IC20/TLR8 IC50 (hERG channel): >10000 | hERG IC20/TLR9 IC50 (hERG channel): >196

Structure (SMILES): CO[C@@H]1CN(c2nccc(N3CCN(C[C@H]4CN(c5ccc(C#N)c6nccnc56)C[C@@H](C)O4)CC3)n2)C[C@H]1N [Example 98, 8-[(2S,6R)-2-[[4-[2-[(3R,4R)-3-amino-4-methoxy-pyrrolidin-1-yl]pyrimidin-4-yl]piperazin-1-yl]methyl]-6-methyl-morpholin-4-yl]quinoxaline-5-carbonitrile]
IC20 (hERG channel): > 10 µM | IC50 (hERG channel): > 20 µM | hERG IC20/TLR7 IC50 (hERG channel): >1666 | hERG IC20/TLR8 IC50 (hERG channel): >10000 | hERG IC20/TLR9 IC50 (hERG channel): >204

Second part, the molecule after the results:

inhibition at 10 min, 10 µM (CYP2D6): 26%
Structure (SMILES): CO[C@@H]1CN(c2ccc(C3CN(C[C@H]4CN(c5ccc(C#N)n6ncc(F)c56)C[C@@H](C)O4)C3)cn2)C[C@H]1N [Example 164, 4-[(2S,6R)-2-[[3-[6-[(3R,4R)-3-amino-4-methoxy-pyrrolidin-1-yl]-3-pyridyl]azetidin-1-yl]methyl]-6-methyl-morpholin-4-yl]-3-fluoro-pyrazolo[1,5-a]pyridine-7-carbonitrile]

inhibition at 10 min, 10 µM (CYP2D6): 11%
Structure (SMILES): C[C@@H]1CN(c2ccc(C#N)c3ncccc23)C[C@H](CN2CC(c3cccc(N4CCNCC4)c3)C2)O1 [Example 4, 5-[(2R,6S)-2-methyl-6-[[3-(3-piperazin-1-ylphenyl)azetidin-1-yl]methyl]morpholin-4-yl]quinoline-8-carbonitrile]

inhibition at 10 min, 10 µM (CYP2D6): 3%
Structure (SMILES): CO[C@H]1CN(c2nc(C)cc(N3CCN(C[C@H]4CN(c5ccc(C#N)c6nccnc56)C[C@@H](C)O4)CC3)n2)C[C@@H]1N [Example 106, 8-[(2S,6R)-2-[[4-[2-[(3S,4S)-3-amino-4-methoxy-pyrrolidin-1-yl]-6-methyl-pyrimidin-4-yl]piperazin-1-yl]methyl]-6-methyl-morpholin-4-yl]quinoxaline-5-carbonitrile]

inhibition at 10 min, 10 µM (CYP2D6): -7.5%
Structure (SMILES): C[C@@H]1CN(c2ccc(C#N)n3ncc(F)c23)C[C@H](CN2CC(c3ccc(N4CC(C)(N)C4)nc3)C2)O1 [Example 158, 4-[(2S,6R)-2-[[3-[6-(3-amino-3-methyl-azetidin-1-yl)-3-pyridyl]azetidin-1-yl]methyl]-6-methyl-morpholin-4-yl]-3-fluoro-pyrazolo[1,5-a]pyridine-7-carbonitrile]

inhibition at 10 min, 10 µM (CYP2D6): 17.5%
Structure (SMILES): C[C@@H]1CN(c2ccc(C#N)n3ncc(F)c23)C[C@H](CN2CC(c3ccc(N4C[C@@H]5C[C@H]4CN5)nc3)C2)O1 [Example 165, 4-[(2S,6R)-2-[[3-[6-[(1S,4S)-2,5-diazabicyclo[2.2.1]heptan-2-yl]-3-pyridyl]azetidin-1-yl]methyl]-6-methyl-morpholin-4-yl]-3-fluoro-pyrazolo[1,5-a]pyridine-7-carbonitrile]

inhibition at 10 min, 10 µM (CYP2D6): 17%
Structure (SMILES): C[C@@H]1CN(c2ccc(C#N)n3ncc(F)c23)C[C@H](CN2CC(c3ccc(N4CC(C)(N)C4)cc3)C2)O1 [Example 160, 4-[(2S,6R)-2-[[3-[4-(3-amino-3-methyl-azetidin-1-yl)phenyl]azetidin-1-yl]methyl]-6-methyl-morpholin-4-yl]-3-fluoro-pyrazolo[1,5-a]pyridine-7-carbonitrile]

inhibition at 10 min, 10 µM (CYP2D6): 10%
Structure (SMILES): Cc1ccc(N2C[C@H](CN3CCN(c4nccc(N5CCNCC5)n4)CC3)O[C@H](C)C2)c2nccnc12 [Example 116, (2R,6S)-2-methyl-4-(8-methylquinoxalin-5-yl)-6-[[4-(4-piperazin-1-ylpyrimidin-2-yl)piperazin-1-yl]methyl]morpholine]

inhibition at 10 min, 10 µM (CYP2D6): 13.5%
Structure (SMILES): C[C@@H]1CN(c2ccc(C#N)c3ncccc23)C[C@H](CN2CCN(c3ccnc(N4C[C@H](N)[C@@H](F)C4)n3)CC2)O1 [Example 110, 5-[(2S,6R)-2-[[4-[2-[(3S,4S)-3-amino-4-fluoro-pyrrolidin-1-yl]pyrimidin-4-yl]piperazin-1-yl]methyl]-6-methyl-morpholin-4-yl]quinoline-8-carbonitrile]

inhibition at 10 min, 10 µM (CYP2D6): 6.5%
Structure (SMILES): C[C@@H]1CN(c2ccc(C#N)n3nccc23)C[C@H](CN2CC(c3ccc(N4CC(C)(N)C4)cc3)C2)O1 [Example 163, 4-[(2S,6R)-2-[[3-[4-(3-amino-3-methyl-azetidin-1-yl)phenyl]azetidin-1-yl]methyl]-6-methyl-morpholin-4-yl]pyrazolo[1,5-a]pyridine-7-carbonitrile]

inhibition at 10 min, 10 µM (CYP2D6): -4%
Structure (SMILES): [2H]c1ccc2c(N3C[C@H](CN4CCN(c5nc(C)cc(N6C[C@H](OC)[C@@H](N)C6)n5)CC4)O[C@H](C)C3)ccc(C#N)c2n1 [Example 134, 5-[(2S,6R)-2-[[4-[4-[(3S,4S)-3-amino-4-methoxy-pyrrolidin-1-yl]-6-methyl-pyrimidin-2-yl]piperazin-1-yl]methyl]-6-methyl-morpholin-4-yl]-2-deuterio-quinoline-8-carbonitrile]
